pIC50: −log10 of the molar value.
Tests used:
JAK3 kinase = target: T1, JAK3 kinase (Homo sapiens, UniProt P52333); experiment: Mobility shift assay, JAK3 kinase inhibitory activity; type: biochemical; details: Caliper EZ Reader
T1 sequence (P52333 1-1124): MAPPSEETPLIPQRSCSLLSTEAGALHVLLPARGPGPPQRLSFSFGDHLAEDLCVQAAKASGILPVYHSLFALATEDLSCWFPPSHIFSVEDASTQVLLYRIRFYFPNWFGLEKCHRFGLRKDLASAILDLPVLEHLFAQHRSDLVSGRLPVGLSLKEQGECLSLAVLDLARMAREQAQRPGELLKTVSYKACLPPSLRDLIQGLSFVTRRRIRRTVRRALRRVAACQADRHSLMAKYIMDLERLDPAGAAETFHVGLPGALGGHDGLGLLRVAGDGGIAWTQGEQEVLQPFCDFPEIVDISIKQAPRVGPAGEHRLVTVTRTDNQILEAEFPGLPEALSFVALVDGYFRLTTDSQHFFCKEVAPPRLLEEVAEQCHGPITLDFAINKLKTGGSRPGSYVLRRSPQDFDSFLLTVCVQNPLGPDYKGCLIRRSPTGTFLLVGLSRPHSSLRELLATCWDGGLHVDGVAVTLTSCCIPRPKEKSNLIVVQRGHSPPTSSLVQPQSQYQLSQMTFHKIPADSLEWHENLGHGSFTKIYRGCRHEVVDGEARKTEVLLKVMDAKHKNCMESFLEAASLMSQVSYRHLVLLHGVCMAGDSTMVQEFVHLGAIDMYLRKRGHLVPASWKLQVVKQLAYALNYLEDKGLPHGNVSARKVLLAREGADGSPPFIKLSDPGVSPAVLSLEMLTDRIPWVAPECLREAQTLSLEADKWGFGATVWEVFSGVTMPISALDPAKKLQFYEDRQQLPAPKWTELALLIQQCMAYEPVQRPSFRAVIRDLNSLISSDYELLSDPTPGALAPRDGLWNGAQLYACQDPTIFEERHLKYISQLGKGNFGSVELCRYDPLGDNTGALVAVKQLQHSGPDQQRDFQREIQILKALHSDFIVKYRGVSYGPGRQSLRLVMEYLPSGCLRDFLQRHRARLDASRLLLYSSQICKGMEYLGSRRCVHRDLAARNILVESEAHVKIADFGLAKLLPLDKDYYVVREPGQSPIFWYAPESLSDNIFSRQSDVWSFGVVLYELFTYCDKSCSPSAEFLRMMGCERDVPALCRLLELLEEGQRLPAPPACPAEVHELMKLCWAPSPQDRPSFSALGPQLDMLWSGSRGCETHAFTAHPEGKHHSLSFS
Protocol: Mobility shift assay was used to detect the in vitro inhibitory activity of the test compounds (listed below) on JAK3 kinase activity. Cerdulatinib (supplier: selleckchem; Article number: S7634) was used as a positive control compound.
Compound was dissolved in 100% DMSO to formulate a 10 mM stock solution and stored in a −20° C. refrigerator away from light.
(1) 1×Kinase buffer was prepared.
After being gradient dilution to a 100-fold final concentration, 250 nL of solutions were transferred to a 384-well plate using Echo550. 250 nL of 100% DMSO were added to each of the negative control wells and the positive control wells, respectively.
(3) 2.5 times a final concentration of kinase solution was prepared with 1×Kinase buffer. […]
(10) The conversion rate was read by Caliper EZ Reader.
Wherein: Conversion %_sample is the conversion rate reading of the sample; Conversion %_min: the mean value of the negative control wells, representing the conversion rate reading of the wells without enzyme activity; Conversion %_max: the mean value of the positive control wells, representing the conversion rate reading of the wells without compound inhibition; % Inhibition represents the percentage inhibition rate. […]

[1] = system: p-STAT5 under IL-15 stimulation in PBMC (JAK-STAT pathway); experiment: p-STAT5 ELISA in IL-15 stimulated hPBMC cells; type: cell-based, human; details: Homo sapiens, PBMC, 45 min compound, 30 min IL-15, ELISA
Protocol: Based on the mechanism of JAK-STAT pathway, the effect of the compounds on the JAK-STAT pathway were evaluated by using cytokine IL-15 to stimulate hPBMC cells, and using the downstream STAT5 phosphorylation level as the detection index.
1. PBMC cell counting plate: 90 μL PBMC was seeded in a 96-well plate (PBMC cell density 80,000/well).
2. Treatment with test compounds: After cells being seeded, drug treatment was carried out immediately. The drugs to be tested at 5 μL/well (final concentrations 1, 0.5, 0.1, 0.05, 0.01, and 0.005 μM) were incubated at 37° C. for 45 min.
3. Cytokine IL-15 stimulation: The cells were stimulated by 5 μL IL-15, and incubated at 37° C. for 30 min.
4. Protein sample collection: The cells were collected in a centrifuge tube and centrifuged for 5 minutes. The supernatant was discarded and cells were lysed with 1× Cell Extraction Buffer PTR.
5. p-STAT5 detection: Perform detection according to the requirements of the ELISA kit.
Experimental results: IC50 values of compounds on p-STAT5 under IL-15 stimulation in PBMC

SRBC mouse model = experiment: SRBC-induced delayed-type hypersensitivity (DTH) in mice; type: in vivo, Balb/c mice; details: 100 mg/kg gavage once a day, day 0 to day 6, FIG. 76
Protocol: Drug formulation: The compound was added to 0.5% CMC-Na solution to formulate a drug suspension (dosage is 10 mg/mL).
Induction and administration of delayed-type hypersensitivity (DTH): 30 male Balb/c mice were weighed and randomly divided into 6 groups according to body weight, with 5 mice in each group. The experimental period lasted for 7 days. On day 0, mice were sensitized by subcutaneous injection of sheep red blood cells (SRBC). The mice were performed gavage administration at 100 mg/kg (once a day) from day 0 to day 6. On day 6, the mice were injected SRBC into the right hind foot pad for challenge. Measurements were taken on the 7th day of the experiment, and the experiment was concluded.
Pharmacodynamic detection indicators of disease models: the detection and observation indicators are the redness and swelling degree and thickness of the paw pads of SRBC-induced mice. The thickness of the right paw was measured on day 6 before the SRBC injection challenge as the baseline. The thickness of the right paw was measured again at the end of the experiment, the difference in paw thickness before and after the second injection was calculated.
Statistical analysis: The experimental data were expressed as mean±standard deviation (Mean±SD). All data were statistically analyzed using T-test, with P<0.05 considered statistically significant.

[2] = system: collagen-induced arthritis model in mice; experiment: Collagen-induced arthritis model in mice (mCIA); type: in vivo, DBA/1J mice; details: 50 mg/kg once a day, FIG. 77
Protocol: 1. Construction of collagen-induced arthritis model in mice (mCIA) Experimental purpose: To test the immunosuppressive activity of YZ001052 in the mCIA model. PF-06651600 was used as a positive control compound.
Complete and incomplete Freund's adjuvants with chicken type II collagen solution were mixed in equal proportions to form emulsions. Except for the blank control group, a mixture of complete Freund's adjuvant and chicken type II collagen solution was injected subcutaneously into the base of the tail and thigh of mice on Day 0. Each mouse was injected subcutaneously with 100 μL at the base of the tail, and injected 50 μL subcutaneously at the base of both thighs (primary immunization). On day 21, mice were injected subcutaneously with 200 μL of a mixture of incomplete Freund's adjuvant and chicken type II collagen as a booster injection (second immunization). Arthritis was considered to occur if the clinical score of at least one limb was >2 points. Paw thickness measurement: Using a vernier caliper to measure the thickness of the left and right hind feet of the mouse and record it, which is the degree of paw swelling. The detection frequency was once every 3 days.

[3] = system: DSS-induced inflammatory bowel disease model in mice; experiment: DSS-induced mouse inflammatory bowel disease model; type: in vivo, C57BL/6 mice; details: 50 mg/kg once a day, 5% DSS, day 8, compared with model group, FIG. 78
Protocol: Experimental purpose: To test the immunosuppressive activity of YZ001052 in DSS-induced inflammatory bowel disease model in mice. PF-06651600 was used as a positive control compound.
50 g of DSS was added 1000 mL of sterile water to formulate a 5% DSS solution, and the solution was filtered with a 0.22 μm filter membrane. Starting from day 0, the blank group was gave drinking water without DSS, and the other experimental groups were gave drinking water containing 5% DSS. All mice were sacrificed on day 8. After the experiment, the colon was collected, photographed and measured for length. The data were analyzed according to Statistics.

[4] = system: mouse model of acute radiation-induced lung injury; experiment: Acute radiation-induced lung injury in mice; type: in vivo, C57BL/6 mice; details: 30 mg/kg q.d., 22.5 Gy whole lung, three weeks after modeling
Protocol: Eighteen female C57BL/6 mice were divided randomly into three groups: blank control group, simple irradiation group, and irradiation+ drug YZ001052 (30 mg/kg q. d) intervention group, with 6 mice in each group.
The mice were anesthetized with 1% sodium pentobarbital by intraperitoneal injection, and irradiated the whole lung with 22.5 Gy in a single shot using 220 KV X-rays through the Small Animal Precision Radiotherapy Research Platform (SARRP). After irradiation, the mice were housed in a normal manner.
Three weeks after modeling, the mice were anesthetized and dissected. The lung tissues were exposed and the left lung was ligated, an open tracheotomy was performed, the lung was lavaged with cold PBS, and the alveolar lavage fluid (BALF) was collected and centrifuged at 4° C.
The supernatant was collected to detect the content of inflammatory factor TNF-α by ELISA.
Resuspend the bronchoalveolar lavage fluid cell pellet in 200 μL PBS for white blood cell (WBC) counting.

How did the pIC50 (JAK3 kinase) turn out when `C=CC(=O)N1CCc2c(c(-c3ccnc4[nH]ccc34)nn2C)C1` [YZ001052, 1-(1-methyl-3-(1H-pyrrolo[2,3-b]pyridin-4-yl)-1,4,6,7-tetrahydro-5H-pyrazolo[4,3-c]pyridin-5-yl)prop-2-en-1-one] was run?
Its pIC50 is 9.60.

What about the pIC50 [1] of the same compound?
The pIC50 was 7.97.

And the “immunosuppressive effect on SRBC-induced delayed-type hypersensitivity (right paw thickness)” value (SRBC mouse model)?
The value was “significant immunosuppressive effects”.

And the paw swelling ([2]; CIA mice)?
The paw swelling was “improved to varying degrees”.

And the arthritis score ([2]; compared with the model group)?
The arthritis score was “significantly decreased”.

What about the colorectal length [3] of the same compound?
The colorectal length was “significantly increased”.

What about the “TNF-α level in bronchoalveolar lavage fluid” value ([4]; FIG. 79) of the same compound?
Its value is “good inhibitory effect”.

What about the “number of inflammatory cell infiltration in the lungs (white blood cells in BALF)” value ([4]; FIG. 80) of the same compound?
The value was “significantly reduce”.

Reference: patent publication US20260085076A1, “CRYSTAL FORM OF AROMATIC HETEROCYCLIC COMPOUND, COMPOSITION THEREOF, PRODUCTION METHOD THEREOF AND USES THEREOF” (Hangzhou Yuhong Pharmaceutical Technology Co., Ltd., priority 2023, published 2026)
